Laboratory results from US8541449B2, “Substituted isoquinolines and isoquinolinones as Rho kinase inhibitors” (Sanofi, priority 2008, dated 2013).

Tests used:
Type in all cases: biochemical
[1] = target: T1, human recombinant ROCK II (Homo sapiens, UniProt O75116); experiment: Determination of Rho kinase inhibition (Caliper peptide phosphorylation assay); settings: 60 min at 32° C., negative decadal logarithm of the IC50
T1 construct: N-terminal His6-tagged recombinant human ROCK-II residues 11-552; His6 (N); purchased Millipore GmbH, Schwalbach, Germany
Protocol: Determination of Rho Kinase Inhibition
To measure Rho-kinase inhibition, IC50 values were determined according to the following protocol:
Active human recombinant ROCK II (N-terminal His6-tagged recombinant human ROCK-II residues 11-552) was purchased from Millipore GmbH, Schwalbach, Germany. The peptide substrate, Fluorescein-[…]-COOH, was obtained from JPT Peptide Technologies, Berlin, Germany. Adenosine-5′-triphosphate (ATP), bovine serum albumine (BSA), dimethylsulphoxide (DMSO), 4-(2-Hydroxyethyl)piperazine-1-ethanesulfonic acid (Hepes), Brij-35, dithiothreitol (DTT) and Pluronic F-68 were purchased from Sigma-Aldrich, Munich, Germany. Tris(hydroxymethyl)-aminomethane (Tris), magnesium chloride, NaOH, 1M HCl and EDTA were obtained from Merck Biosciences, Darmstadt, Germany. “Complete” protease inhibitor was from Roche Diagnostics, Mannheim, Germany.
(§1) Test compounds were diluted to the appropriate concentrations in buffer 1 (25 mM Tris-HCl, pH 7.4, 5 mM MgCl2, 2 mM DTT, 0.02% (w/v) BSA, 0.01% Pluronic F-68 and 3% DMSO). The ROCK II enzyme was diluted to a concentration of 100 ng/mL in buffer 2 (25 mM Tris-HCl, pH 7.4, 5 mM MgCl2, 2 mM DTT and 0.02% (w/v) BSA). The peptide substrate and ATP were diluted to concentrations of 3 μM and 120 μM, respectively, in the buffer 2. Two μl of the compound solution were mixed with 2 μl of the diluted enzyme in a 384-well small volume microtiter plate (Greiner, Bio-One, Frickenhausen, Germany), and the kinase reaction was initiated by addition of 2 μl of the solution containing peptide substrate and ATP. After 60 min incubation at 32° C., the reaction was stopped by addition of 20 μl of a solution containing 100 mM Hepes-NaOH, pH 7.4, 0.015% (v/v) Brij-35, 45 mM EDTA and 0.227% chip coating reagent 1 (Caliper Lifescience Inc, Hopkinton, Mass.). Phosphorylation of the substrate peptide was then detected on a Caliper 3000 instrument essentially as described by Pommereau et al (J. Biomol. Screening 9(5), 409-416, 2004). Separation conditions were as follows: Pressure −1.3 psi, upstream voltage −1562 V, downstream voltage −500 V, sample sip time 200 ms. Positive controls (buffer 1 instead of compound) and negative controls (buffer 1 instead of compound and buffer 2 instead of ROCK II) were run in parallel on each plate.
The following products/compounds were tested in said assay by using the respective form (salt or free base) obtained as in the examples described above and the following activities were measured

[2] = target: T2, recombinant human PKA (Homo sapiens, UniProt P17612); experiment: Determination of Protein Kinase A inhibition (Caliper peptide phosphorylation assay); settings: recombinant human PKA versus ROCK II
T2 construct: Active recombinant human PKA (residues 1-351, N-terminal His-tag); His-tag (N); purchased Invitrogen, Karlsruhe, Germany
Protocol: (§2) Determination of Protein Kinase A and Protein Kinase G Inhibition
(§3) To measure PKA and PKG1-beta inhibition, IC50 values were determined according to the following protocol:
(§4) Active recombinant human PKG1-beta (full-length, with N-terminal His-tag) was purchased from Millipore GmbH, Schwalbach, Germany. Active recombinant human PKA (residues 1-351, N-terminal His-tag) was obtained from Invitrogen, Karlsruhe, Germany. The peptide substrate, Fluorescein-[…]-COOH, was obtained from JPT Peptide Technologies, Berlin, Germany. Adenosine-5′-triphosphate (ATP), bovine serum albumine (BSA), dimethylsulphoxide (DMSO), 4-(2-Hydroxyethyl)piperazine-1-ethanesulfonic acid (Hepes), Brij-35, dithiothreitol (DTT) and Pluronic F-68 were purchased from Sigma-Aldrich, Munich, Germany. Tris(hydroxymethyl)-aminomethane (Tris), magnesium chloride, NaOH, 1M HCl and EDTA were obtained from Merck Biosciences, Darmstadt, Germany. “Complete” protease inhibitor was from Roche Diagnostics, Mannheim, Germany.
as §1, with “PKG1-beta and PKA were” for “The ROCK II enzyme was”, “concentrations” for “a concentration”, “150 ng/ml and 30 ng/ml, respectively,” for “100 ng/mL”, “2.” for “2 (25 mM Tris-HCl, pH 7.4, 5 mM MgCl2, 2 mM DTT and 0.02% (w/v) BSA).”, “kinase solution)” for “ROCK II)”, “plate. The following products/compounds were tested in said assay by using the respective form (salt or free base) obtained as in the examples described above and the following activities were measured.” for “plate.”

[3] = target: T3, recombinant human PKG1-beta (Homo sapiens, UniProt Q13976); experiment: Determination of Protein Kinase G inhibition (Caliper peptide phosphorylation assay); settings: recombinant human PKG1-beta versus ROCK II
T3 construct: Active recombinant human PKG1-beta (full-length, with N-terminal His-tag); His-tag (N); purchased Millipore GmbH, Schwalbach, Germany
T3 sequence (Q13976 1-686 isoform Q13976-2): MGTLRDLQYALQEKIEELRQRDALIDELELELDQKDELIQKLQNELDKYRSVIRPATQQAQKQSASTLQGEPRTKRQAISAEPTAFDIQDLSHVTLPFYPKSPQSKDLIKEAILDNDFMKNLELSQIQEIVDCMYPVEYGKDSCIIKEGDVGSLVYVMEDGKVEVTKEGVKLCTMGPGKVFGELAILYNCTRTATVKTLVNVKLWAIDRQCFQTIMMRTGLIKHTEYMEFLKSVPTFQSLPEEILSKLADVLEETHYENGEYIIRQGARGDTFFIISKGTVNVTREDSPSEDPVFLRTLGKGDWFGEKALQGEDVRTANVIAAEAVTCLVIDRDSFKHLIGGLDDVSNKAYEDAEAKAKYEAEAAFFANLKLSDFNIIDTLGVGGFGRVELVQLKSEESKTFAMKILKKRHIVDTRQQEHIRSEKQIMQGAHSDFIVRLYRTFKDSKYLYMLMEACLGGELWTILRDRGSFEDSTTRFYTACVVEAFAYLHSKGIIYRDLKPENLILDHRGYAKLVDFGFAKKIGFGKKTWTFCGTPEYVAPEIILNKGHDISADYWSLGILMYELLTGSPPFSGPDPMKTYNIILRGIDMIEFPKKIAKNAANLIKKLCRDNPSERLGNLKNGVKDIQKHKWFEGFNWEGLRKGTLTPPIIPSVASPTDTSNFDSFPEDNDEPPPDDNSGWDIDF
Protocol: as §2, §3, §4
as §1, with “PKG1-beta and PKA were” for “The ROCK II enzyme was”, “concentrations” for “a concentration”, “150 ng/ml and 30 ng/ml, respectively,” for “100 ng/mL”, “2.” for “2 (25 mM Tris-HCl, pH 7.4, 5 mM MgCl2, 2 mM DTT and 0.02% (w/v) BSA).”, “kinase solution)” for “ROCK II)”, “plate. The following products/compounds were tested in said assay by using the respective form (salt or free base) obtained as in the examples described above and the following activities were measured.” for “plate.”

T1 sequence (O75116 11-552): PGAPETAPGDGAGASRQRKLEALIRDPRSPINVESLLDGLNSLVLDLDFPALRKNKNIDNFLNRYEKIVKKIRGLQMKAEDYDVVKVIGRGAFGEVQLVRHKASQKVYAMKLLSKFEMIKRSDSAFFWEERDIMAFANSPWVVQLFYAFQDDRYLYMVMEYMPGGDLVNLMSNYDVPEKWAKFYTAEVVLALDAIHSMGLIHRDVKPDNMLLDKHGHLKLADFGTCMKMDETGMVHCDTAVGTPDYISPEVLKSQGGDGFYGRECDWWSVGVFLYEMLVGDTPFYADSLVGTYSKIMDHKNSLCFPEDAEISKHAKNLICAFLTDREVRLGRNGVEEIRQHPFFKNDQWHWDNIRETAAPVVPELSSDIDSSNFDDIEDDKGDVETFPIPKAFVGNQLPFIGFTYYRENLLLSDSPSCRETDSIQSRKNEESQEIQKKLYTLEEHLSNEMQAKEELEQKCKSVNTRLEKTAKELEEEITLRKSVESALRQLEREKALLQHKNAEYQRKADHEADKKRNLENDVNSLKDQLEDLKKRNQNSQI

CCC(N)(CC)C1CCC(Oc2cc3cc[nH]c(=O)c3cc2Cl)CC1 (single isomer, unassigned) [Example 119, 6-{4-[1-Amino-1-ethyl-propyl]-cyclohexyloxy}-7-chloro-2H-isoquinolin-1-one]
IC50 [1]: 100 to 1000 nM

COc1ccc(C(C)(N)C2CCC(Oc3cc4cc[nH]c(=O)c4cc3Cl)CC2)cc1 (stereo not shown) [Example 117, 6-{4-[1-Amino-1-(4-methoxy-phenyl)-ethyl]-cyclohexyloxy}-7-chloro-2H-isoquinolin-1-one]
Selectivity against PKA [2]: >300 | Selectivity against PKG [3]: >10

NC(C1CCC(Oc2cc3cc[nH]c(=O)c3cc2Cl)CC1)C1CC1 (single isomer, unassigned) [Example 132, 6-[4-(Amino-cyclopropyl-methyl)-cyclohexyloxy]-7-chloro-2H-isoquinolin-1-one]
Selectivity against PKA [2]: >100 | Selectivity against PKG [3]: >10

CC(N)(C1CCCC1)C1CCC(Oc2cc3cc[nH]c(=O)c3cc2Cl)CC1 (single isomer, unassigned) [Example 118, 6-{4-[1-Amino-1-cyclopentyl-ethyl]-cyclohexyl-oxy}-7-chloro-2H-isoquinolin-1-one]
IC50 [1]: 100 to 1000 nM

COCCC(N)[C@]1(c2ccc(F)cc2)CC[C@H](Oc2cc3cc[nH]c(=O)c3cc2Cl)CC1 (stereo partly drawn) [Example 115, cis-6-[4-(1-Amino-3-methoxy-propyl)-4-(4-fluoro-phenyl)-cyclohexyloxy]-7-chloro-2H-isoquinolin-1-one]
pIC50 [1]: +++++ (6.0≦pIC50<7.0)

NC(c1ccccc1)C1CCC(Oc2cc3cc[nH]c(=O)c3cc2Cl)CC1 (single isomer, unassigned) [Example 40, 6-[4-(Amino-phenyl-methyl)-cyclohexyloxy]-7-chloro-2H-isoquinolin-1-one]
IC50 [1]: 100 to 1000 nM

CCC(N)[C@]1(c2ccccc2)CC[C@H](Oc2cc3ccncc3cc2Cl)CC1 (stereo partly drawn) [Example 89, cis-1-[4-(7-Chloro-iso-quinolin-6-yloxy)-1-phenyl-cyclohexyl]-propylamine]
pIC50 [1]: +++++ (6.0≦pIC50<7.0)

CCC(N)[C@]1(c2ccccc2)CC[C@H](Oc2ccc3cnccc3c2Cl)CC1 (stereo partly drawn) [Example 92, cis-1-[4-(5-Chloro-isoquinolin-6-yloxy)-1-phenyl-cyclohexyl]-propylamine]
pIC50 [1]: +++++ (6.0≦pIC50<7.0)

CCC(N)[C@]1(c2ccc(F)c(F)c2)CC[C@H](Oc2c(F)cc3c(=O)[nH]ccc3c2C)CC1 (stereo partly drawn) [Example 67, cis-6-[4-(1-Amino-propyl)-4-(3,4-difluoro-phenyl)-cyclohexyloxy]-7-fluoro-5-methyl-2H-isoquinolin-1-one]
pIC50 [1]: +++++ (6.0≦pIC50<7.0)

CCC(N)[C@]1(c2ccccc2)CC[C@H](Oc2cc3ccnc(N)c3cc2Cl)CC1 (stereo partly drawn) [Example 111, cis-6-[4-(1-Amino-propyl)-4-phenyl-cyclohexyloxy]-7-chloro-isoquinolin-1-ylamine]
pIC50 [1]: ++++++ (7.0≦pIC50<8.0)

CCC(N)[C@]1(c2ccccc2)CC[C@H](Oc2cc3ccncc3cc2Br)CC1 (stereo partly drawn) [Example 94, cis-1-[4-(7-Bromo-isoquinolin-6-yloxy)-1-phenyl-cyclohexyl]-propylamine]
pIC50 [1]: +++++ (6.0≦pIC50<7.0)

CCC(N)[C@]1(c2ccccc2)CC[C@H](Oc2c(C)cc3cnccc3c2C)CC1 (stereo partly drawn) [Example 90, cis-1-[4-(5,7-Dimethyl-isoquinolin-6-yloxy)-1-phenyl-cyclohexyl]-propylamine]
pIC50 [1]: +++++ (6.0≦pIC50<7.0)

CCC(N)[C@]1(c2ccc(F)c(F)c2)CC[C@H](Oc2cc3cc[nH]c(=O)c3cc2C)CC1 (stereo partly drawn) [Example 65, cis-6-[4-(1-Amino-propyl)-4-(3,4-difluoro-phenyl)-cyclohexyloxy]-7-methyl-2H-isoquinolin-1-one]
pIC50 [1]: +++++ (6.0≦pIC50<7.0)

CCC(N)[C@]1(c2ccccc2)C[C@H]2C[C@@H]1CC2Oc1cc2cc[nH]c(=O)c2cc1Cl (stereo partly drawn) [Example 101, 6-[(1R,4R,5R)-5-(1-Amino-propyl)-5-phenyl-bicyclo[2.2.1]hept-2-yloxy]-7-chloro-2H-isoquinolin-1-one]
pIC50 [1]: +++++ (6.0≦pIC50<7.0)

CCC(N)[C@]1(c2ccc(C)c(OC)c2)CC[C@H](Oc2cc3cc[nH]c(=O)c3cc2Cl)CC1 (stereo partly drawn) [Example 64, cis-6-[4-(1-Amino-propyl)-4-(3-methoxy-4-methyl-phenyl)-cyclohexyloxy]-7-chloro-2H-isoquinolin-1-one]
Selectivity against PKA [2]: >1000 | Selectivity against PKG [3]: >100

CC(N)(c1ccccc1)C1CCC(Oc2cc3cc[nH]c(=O)c3cc2Cl)CC1 (stereo not shown) [Example 34, 6-[4-(1-Amino-1-phenyl-ethyl)-cyclohexyloxy]-7-chloro-2H-isoquinolin-1-one]
Selectivity against PKA [2]: >300 | Selectivity against PKG [3]: >10

CCCC(C)(N)C1CCC(Oc2cc3cc[nH]c(=O)c3cc2Cl)CC1 (single isomer, unassigned) [Example 124, 6-{4-[1-Amino-1-methyl-n-butyl]-cyclohexyloxy}-7-chloro-2H-isoquinolin-1-one]
Selectivity against PKA [2]: >100 | Selectivity against PKG [3]: >10
